This passage reports TGI results from PubChem BioAssay (NCI).

The structures appear in SMILES notation.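 Cultured in 96-well plates, cells were exposed to test compound for 48 hours across five concentrations. At the TGI there is no net growth.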

Common to all, as to assay: NCI anticancer screen, dose series, 48 h
For test [1], the system named is NCI-H23 lung.
Test [2] concerns MDA-N.
The test system of test [3] is NCI-H460 lung.
Test [4] relates to SK-MEL-2 melanoma.
Test [5] has as its system SF-295 CNS.
Test [6] relates to K-562 leukemia.
For test [7], the system named is A549 NSCLC.
Test [8] concerns LOX IMVI melanoma.
The subject of test [9] is HOP-62 NSCLC.
Test [10] has as its system MDA-MB-435.
Test [11] concerns T-47D breast.
Test [12] relates to DU-145 prostate.
Test [13] concerns UACC-62 melanoma.
In test [14] the test system is RPMI-8226 leukemia.
Test [15] relates to HOP-92 NSCLC.
Test [16] concerns SK-OV-3 ovarian.
The test system of test [17] is BT-549 breast.
In test [18] the test system is MCF7 breast.
Test [19] relates to HT29 colon.
The test system of test [20] is SNB-75 CNS.

For the compound `O=C(n1c(=O)n(-c2ccc(Cl)cc2)c(=O)n1C(=O)C(Cl)(Cl)Cl)C(Cl)(Cl)Cl`, the TGI in [1], in test [2], in test [3], in test [4], in test [5] and in [6] was greater than 100 µM each time. In addition, the TGI in test [7], in test [8], in test [9], in [10], in test [11] and in test [12] was greater than 100 µM throughout. For the same compound, the TGI in test [13], in [14], in [15], in test [16], in [17] and in test [18] was greater than 100 µM throughout. The TGI in [19] was greater than 100 µM.

Take `Cc1ccc(CCCCCOc2ccc(C3=NCCO3)cc2)s1`: the TGI was greater than 100 µM in [1]; 62.6 µM in [2]; greater than 100 µM in [3]; greater than 100 µM in test [4]; greater than 100 µM in test [5]; greater than 100 µM in test [6]. For the same compound, the TGI in test [7], in test [9], in [10], in test [11], in [12] and in test [13] was greater than 100 µM in each case. The TGI in [14], in test [16], in test [20], in [17], in test [18] and in test [19] was greater than 100 µM throughout.

On to `CC(C)c1nc2c(Cl)c3ncccc3cc2[nH]c1=O`, for which the TGI in test [1], in test [2], in [3], in [4], in [5] and in test [6] was greater than 100 µM throughout. Besides, the TGI in test [7], in test [9], in test [10], in test [11], in [12] and in test [13] was greater than 100 µM each time. For the same compound, the TGI in test [14], in test [15], in test [16], in test [20], in test [17] and in [18] was greater than 100 µM throughout. This compound also came in with a TGI in test [19] greater than 100 µM.

Take `Clc1ccccc1-c1nnc2c(-c3ccccc3)nc3ccccc3n12`: the TGI in test [1], in test [2], in test [3], in [4], in test [6] and in test [7] was greater than 100 µM throughout. Besides, the TGI in test [8] was greater than 100 µM; in [9], greater than 100 µM; in test [10], greater than 100 µM; in test [11], 69.2 µM; in test [12], greater than 100 µM; in test [13] it was greater than 100 µM. In addition, the TGI in [14], in test [15], in test [16], in [17], in test [18] and in test [19] was greater than 100 µM throughout.

On to `COc1ccc2c(c1)N=C1CSC(c3c(Cl)cccc3[N+](=O)[O-])N1C2` (stereo unspecified), for which the TGI was greater than 100 µM in test [1]; greater than 100 µM in test [2]; 62.9 µM in test [3]; greater than 100 µM in [4]; greater than 100 µM in test [5]; greater than 100 µM in test [6]. Also, the TGI in test [7] is greater than 100 µM; in test [8] it was greater than 100 µM; in test [9], greater than 100 µM; in test [10] it was greater than 100 µM; in test [11], greater than 100 µM; in [13], 48.1 µM. In addition, the TGI in test [14] was 84.6 µM; in test [15], greater than 100 µM; in test [16], greater than 100 µM; in test [20], 98.5 µM; in [17], 62.9 µM; in test [18], greater than 100 µM. In addition, the TGI in test [19] was greater than 100 µM.

With `COc1cccc(C[C@H]2COC(=O)[C@]2(O)Cc2cccc(OC)c2)c1`, the TGI in test [1], in test [2], in test [3], in test [4], in test [5] and in test [6] was greater than 100 µM in each case. Besides, the TGI was greater than 100 µM in test [7]; greater than 100 µM in [8]; greater than 100 µM in test [9]; greater than 100 µM in test [10]; 67.9 µM in [11]; greater than 100 µM in test [12]. The TGI in test [13], in [14], in [15], in [16], in [20] and in [17] was greater than 100 µM each time. In test [19], this compound came in with a TGI greater than 100 µM.

For `CCOC(=O)c1nc2ccccc2nc1Oc1ccc(OC)cc1`, the TGI in test [2], in [3], in test [4], in [5], in test [6] and in test [7] was greater than 100 µM each time. The TGI in [8], in [9], in test [10], in test [11], in test [12] and in test [13] was greater than 100 µM each time. Moreover, the TGI in test [14], in [15], in test [16], in test [17], in test [18] and in test [19] was greater than 100 µM throughout.

For the compound `COc1ccc(/C=C2\CN(C)CC3C2=NC(=S)NC3c2ccc(OC)cc2)cc1` (stereo unspecified), the TGI was greater than 94.1 µM in test [1]; 3.74 µM in test [2]; 59.8 µM in test [3]; greater than 64.8 µM in test [4]; greater than 75.8 µM in test [5]; greater than 100 µM in test [6]. For the same compound, the TGI in [7] was greater than 100 µM; in test [8] it was greater than 100 µM; in test [9], greater than 100 µM; in test [10] it was 7.86 µM; in [11], greater than 29.9 µM; in [12] it was 26.4 µM. The TGI in test [13] is greater than 100 µM; in test [14] it was greater than 24.7 µM; in test [15], 94.3 µM; in test [16] it was greater than 100 µM; in test [17], greater than 100 µM; in test [18], greater than 100 µM. This compound also returned a TGI in [19] of 83.1 µM.

Consider `COc1ccc(NS(=O)c2ccc(OC)cc2)cc1` (stereo unspecified), for which the TGI in test [1] is greater than 100 µM; in [2] it was greater than 100 µM; in test [3], greater than 100 µM; in test [4], 83.6 µM; in test [5], greater than 100 µM; in test [6] it was greater than 100 µM. The TGI in test [7] was greater than 100 µM; in test [8] it was greater than 100 µM; in [9], greater than 100 µM; in [10], greater than 100 µM; in [11], 82.8 µM; in test [12], greater than 100 µM. Also, the TGI in [13] is 66.2 µM; in [14] it was greater than 100 µM; in [17], greater than 100 µM; in test [18], greater than 100 µM; in test [19], greater than 100 µM.

Turning to `CC(C)(C)N(Cc1ccoc1)C(=O)/C=C\S(=O)c1ccccc1` (stereo unspecified), the TGI in [1] is 32.3 µM; in test [2] it was 44.2 µM; in test [4], 39.6 µM; in test [5] it was greater than 100 µM; in test [6], greater than 100 µM; in test [7], greater than 100 µM. For the same compound, the TGI in test [8] stood at 21.8 µM; in [9] it was 36.6 µM; in [10] it was 20.7 µM; in test [11], 38.2 µM; in test [12], 25.7 µM; in [13], 39.3 µM. Besides, the TGI in test [14] worked out at 89.6 µM; in [15], 34.4 µM; in [16], 77.6 µM; in [17], 30.3 µM; in [18] it was 36.7 µM; in [19] it was 97.7 µM.

As for `O=C(/C=C(\O)c1ccc(Cl)cc1)C(=O)NN=C(c1ccccc1)c1ccccc1`, the TGI is greater than 100 µM in [1]; greater than 100 µM in test [2]; 31.3 µM in [3]; greater than 100 µM in [4]; greater than 100 µM in [5]; greater than 100 µM in test [6]. Besides, the TGI in [7], in [9], in [10], in test [11], in test [12] and in [13] was greater than 100 µM each time. Moreover, the TGI in [16], in test [20], in test [17], in [18] and in test [19] was greater than 100 µM each time.

Take `O=C(CN1CCOCC1)Nc1ccc2c(c1)C1Oc3ccccc3CC1CO2` (stereo unspecified): the TGI in test [1], in [2], in test [4], in [5], in test [6] and in test [7] was greater than 100 µM throughout. In addition, the TGI in test [8], in test [9], in [10], in [11], in test [12] and in [13] was greater than 100 µM in each case. The TGI in test [14], in test [15], in test [16], in test [17], in [18] and in [19] was greater than 100 µM throughout.

On to `Fc1ccc(Nc2nnc(-c3ccccn3)s2)cc1`, for which the TGI in test [1], in test [2], in test [3], in test [4], in test [5] and in [7] was greater than 100 µM each time. The TGI in [8], in [9], in [10], in test [11], in test [12] and in test [13] was greater than 100 µM in each case. For the same compound, the TGI in [14], in test [15], in test [16], in test [17], in test [18] and in test [19] was greater than 100 µM each time.

On to `COc1ccc2nc3ccc(OC)cc3c(SCC3CO3)c2c1` (stereo unspecified), for which the TGI is 35.4 µM in test [1]; 30.6 µM in test [2]; 31 µM in test [3]; 28.4 µM in test [4]; greater than 100 µM in [5]; 54.1 µM in [6]. The TGI in [7] is greater than 100 µM; in [8], 33.4 µM; in test [9], greater than 100 µM; in [10] it was 40 µM; in test [11], 43.6 µM; in test [14], 74.6 µM. In addition, the TGI in [16] was greater than 100 µM; in [20], greater than 100 µM; in [17], 30.4 µM; in test [18], 26.6 µM.

As to `C/C(=N\NC(=S)NNC(=S)N(C)c1ccccc1)c1ccccn1`, the TGI was greater than 100 µM in test [1]; greater than 100 µM in test [2]; 29.5 µM in test [3]; greater than 100 µM in test [4]; greater than 100 µM in [5]; greater than 100 µM in test [6]. For the same compound, the TGI in [7] is greater than 100 µM; in [9], greater than 100 µM; in test [10], 25.6 µM; in test [11] it was 72.8 µM; in test [12], greater than 100 µM; in test [14], greater than 30.4 µM. The TGI in test [15] was 26.6 µM; in test [16], greater than 83.8 µM; in test [20], greater than 100 µM; in test [17], greater than 100 µM; in test [18], greater than 100 µM; in test [19], greater than 100 µM.
